Test results as given in patent US20070117857A1, “Substituted 3-amido-tetrahydro-indazolyl cannabinoid modulators” (priority 2005, published 2007).

Columns and labels:
human CB1 receptor [1] = target: T1, human CB1 receptor (Homo sapiens, UniProt P21554); assay: Functional cell-based assay, CB1 receptor mediated change in CRE β-gal expression; set-up: expressed in transfected cells; host or cells: SK-N-MC cells; conditions: SK-N-MC cells with CRE β-gal and human CB1; forskolin treated; β-galactosidase activity; read-out: EC50 value for functional activity as a CB1 receptor functional inverse agonist
Excerpt: The CB1 and CB2.receptors are G-protein coupled receptors (GPCR) that influence cell function via the Gi-protein. These receptors modulate the activity of intracellular adenylate cyclase, which in turn produces the intracellular signal messenger cyclic-AMP (cAMP).
At baseline, or during non-ligand bound conditions, these receptors are constitutively active and tonically suppress adenylate cyclase activity. The binding of an agonist causes further receptor activation and produces additional suppression of adenylate cyclase activity. The binding of an inverse agonist inhibits the constitutive activity of the receptors and results in an increase in adenylate cyclase activity.
Test compounds were evaluated in SK-N-MC cells which, using standard transfection procedures, were stably transfected with human cDNA for pcDNA3-CRE β-gal and pcDNA3 CB1 receptor (human) or pcDNA3 CB2 receptor (human). By expressing CRE β-gal, the cells produced β-galactosidase in response to CRE promoter activation by cAMP. Cells expressing CRE β-gal and either the human CB1 or CB2 receptor will produce less β-galactosidase when treated with a CB1/CB2 agonist and will produce more β-galactosidase when treated with a CB1/CB2 inverse agonist.
The cells were grown in 96-well plates under standard cell culture conditions at 37° C. in a 5% CO2 atmosphere. After 3 days, the media was removed and a test compound in media (wherein the media was supplemented with 2 mM L-glutamine, […] sodium pyruvate, 0.1% low fatty acid FBS (fetal bovine serum) and antibiotics) was added to the cell. The plates were incubated for 30 minutes at 37° C. and the plate cells were then treated with forskolin over a 4-6 hour period, then washed and lysed. The β-galactosidase activity was quantitated using commercially available kit reagents (Promega Corp. Madison, Wis.) and a Vmax Plate Reader (Molecular Devices, Inc).
For cells expressing CRE β-gal and the CB1 receptor, CB1 agonists reduced β-galactosidase activity in a dose-dependent manner and CB1 inverse agonists increased β-galactosidase activity in a dose-dependent manner.
The change in β-galactosidase activity was determined by setting a vehicle treated cell's activity value at 100% and expressing the β-galactosidase activity measured in a corresponding compound treated cell as a percent of the vehicle treated cell activity.
The EC50 value for functional activity for compounds tested was calculated by linear regression and was obtained from studies in which varying compound concentrations were used.

human CB1 receptor [2] = target: T1, human CB1 receptor; assay: Binding assay for CB1 agonists or inverse agonists ([3H]-CP-55,940 displacement); set-up: expressed in transfected cells; host or cells: SK-N-MC cells (semi-purified membrane pellet); conditions: test concentration of 0.2 μM; membranes of SK-N-MC cells expressing human CB1
Description: (§1) The human CB1 and CB2 receptors were stably expressed in SK-N-MC cells transfected with pcDNA3 CB1 (human) or pcDNA3 CB-2 (human). The cells were grown in T-180 cell culture flasks under standard cell culture conditions at 37° C. in a 5% CO2 atmosphere. The cells were harvested by trysinization and homogenized in a homogenization buffer (10 mM Tris, 0.2 mM MgCl2, 5 mM KCl, with protease inhibitors aprotinin, leupeptin, pepstatin A and bacitracin) and centrifuged (2000 g). The supernatant was then centrifuged in 2M sucrose (31,300 g) to produce a semi-purified membrane pellet. The pellet was resuspended in homogenization and stored at −80° C.
(§2) On the day of the assay, the pellet was thawed on ice and diluted in assay buffer (50 mM Tris-HCl, 5 mM MgCl2, 2.5 mM EDTA, 0.5 mg/mL fatty acid free bovine serum albumin, pH 7.5). […] Non-specific binding was measured in wells containing WIN 55,212 (10 uM). […] The Unifilter plate was dried, a scintillation cocktail was added to each well and the counts representing binding were quantitated in a TopCount scintillation counter.
(§3) For compounds tested, an IC50 binding value was obtained from percent inhibition studies in which various test concentrations were used. The binding value was calculated by linear regression. […]

human CB2 receptor = target: T2, human CB2 receptor (Homo sapiens, UniProt P34972); assay: Binding assay for CB2 agonists or inverse agonists ([3H]-CP-55,940 displacement); conditions: test concentration of 0.2 μM; membranes of SK-N-MC cells expressing human CB2
T2 construct: expressed in transfected cells; host or cells: SK-N-MC cells (semi-purified membrane pellet)
Description: as §1, §2, §3

T1 sequence (P21554 whole entry): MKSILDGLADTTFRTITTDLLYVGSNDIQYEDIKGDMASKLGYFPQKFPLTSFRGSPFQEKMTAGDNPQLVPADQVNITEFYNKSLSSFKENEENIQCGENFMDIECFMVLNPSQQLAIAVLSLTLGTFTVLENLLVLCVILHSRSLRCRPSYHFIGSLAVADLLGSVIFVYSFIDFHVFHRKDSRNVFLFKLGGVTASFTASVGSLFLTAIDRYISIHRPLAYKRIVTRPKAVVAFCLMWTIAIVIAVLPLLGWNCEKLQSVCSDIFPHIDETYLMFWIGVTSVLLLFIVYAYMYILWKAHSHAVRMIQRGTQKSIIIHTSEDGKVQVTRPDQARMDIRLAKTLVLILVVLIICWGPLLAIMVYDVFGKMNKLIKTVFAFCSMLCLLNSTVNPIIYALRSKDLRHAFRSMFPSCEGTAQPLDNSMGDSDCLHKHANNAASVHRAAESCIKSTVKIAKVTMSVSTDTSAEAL
T2 sequence (P34972 whole entry): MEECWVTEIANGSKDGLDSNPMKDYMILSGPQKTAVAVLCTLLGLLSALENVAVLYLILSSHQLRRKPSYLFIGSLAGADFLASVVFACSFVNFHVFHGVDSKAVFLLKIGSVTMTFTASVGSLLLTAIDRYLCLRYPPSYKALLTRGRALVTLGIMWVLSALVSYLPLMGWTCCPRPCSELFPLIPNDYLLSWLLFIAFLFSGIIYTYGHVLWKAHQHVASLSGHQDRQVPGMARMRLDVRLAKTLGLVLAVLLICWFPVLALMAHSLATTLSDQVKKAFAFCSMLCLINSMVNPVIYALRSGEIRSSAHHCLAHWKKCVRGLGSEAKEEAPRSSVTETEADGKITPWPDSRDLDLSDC

Row | SMILES | EC50 (human CB1 receptor [1]) | CB1 binding (human CB1 receptor [2]) | CB2 binding (human CB2 receptor)
1 | COC1CCN(NC(=O)c2nn(-c3ccc(Cl)cc3Cl)c3c2CCC/C3=C\c2ccc(F)cc2)CC1 [Compound 2, (7E)-1-(2,4-dichloro-phenyl)-7-(4-fluoro-benzylidene)-4,5,6,7-tetrahydro-1H-indazole-3-carboxylic acid(4-methoxy-piperidin-1-yl)-amide] | 4 nM | – | –
2 | O=C(NN1CCCCC1=O)c1nn(-c2ccc(Cl)cc2Cl)c2c1CCC/C2=C\c1ccc(F)cc1 [Compound 3, (7E)-1-(2,4-dichloro-phenyl)-7-(4-fluoro-benzylidene)-4,5,6,7-tetrahydro-1H-indazole-3-carboxylic acid(2-oxo-piperidin-1-yl)-amide] | – | 19% | 28%
3 | O=C(NN1C=CCCC1)c1nn(-c2ccc(Cl)cc2Cl)c2c1CCC/C2=C\c1ccc(F)cc1 [Compound 5, (7E)-1-(2,4-dichloro-phenyl)-7-(4-fluoro-benzylidene)-4,5,6,7-tetrahydro-1H-indazole-3-carboxylic acid(3,4-dihydro-2H-pyridin-1-yl)-amide] | 1.4 nM | – | –
4 | O=C(NN1CCC(O)CC1)c1nn(-c2ccc(Cl)cc2Cl)c2c1CCC/C2=C\c1ccc(F)cc1 [Compound 1, (6E)-1-(2,4-dichloro-phenyl)-7-(4-fluoro-benzylidene)-4,5,6,7-tetrahydro-1H-indazole-3-carboxylic acid (4-hydroxy-piperidin-1-yl)-amide] | 40 nM | – | –
5 | C[N+]1(NC(=O)c2nn(-c3ccc(Cl)cc3Cl)c3c2CCC/C3=C\c2ccc(F)cc2)CCCCC1 [Compound 4, (7E)-1-{[1-(2,4-dichloro-phenyl)-7-(4-fluoro-benzylidene)-4,5,6,7-tetrahydro-1H-indazole-3-carbonyl]-amino}-1-methyl-piperidinium] | 7.2 nM | – | –
